Assay results taken from patent US20250368625A1, “PIPERAZINES” (Grünenthal GmbH, priority 2024, published 2025).

Biological target: T1, human SSTR4 (Homo sapiens, UniProt P31391)
T1 construct: expressed in transfected cells; host or cells: CHO-K1
Assay: hSSTR4 cAMP assay (cAMP accumulation, LANCE Ultra cAMP kit, CHO-K1 human SSTR4 Gi cell line)
Type: cell-based
Settings: functional agonism, forskolin 10 μM stimulated CHO-K1 human SSTR4 Gi cells, 30 min at 25° C., at least duplicate, averaged; read-out: hSSTR4 EC50
Method: cAMP accumulation assay using a CHO-K1 human SSTR4 Gi cell line.
Quantification of intracellular cAMP was performed using the LANCE Ultra cAMP assay kit from Revvity according to the manufacturer's instructions. CHO-K1 human SSTR4 Gi cell were either seeded in a density of 3K cells per well into a 384 well plate and incubated at 37° C. and 5% CO2 for 18-20 h or a stock of frozen cells were defrosted and seeded in a density of 5K cells per well without any further cultivation directly prior to the assay in a total volume of 5 μL in stimulation buffer. For pre-cultured cells, medium was replaced with 5 μL stimulation buffer before the assay. Cells were then stimulated with forskolin (final concentration 10 μM) and test compound (SSTR4 agonist) in increasing concentrations in duplicates for 30 min at 25° C. After stimulation, cells were lysed by addition of 10 μL of detection buffer (provided with the kit) and cell lysates were further diluted to ensure final cAMP concentrations fitted well into the dynamic range of the test kit. 10 μL of the diluted lysates were then added to respective wells of an OptiPlate-384 microplate. Thereafter, 5 μL of 4× Eu-cAMP tracer working solution was added, followed by addition of 5 μL of ULight-anti-cAMP working solution. The plate was then incubated for 1 h at 25° C. before reading on a TR-FRET microplate instrument. Data were normalized to cAMP high (forskolin only) and low control (forskolin+100 nM SST14) before fitting to a 4-Paramter logistic function.
All data was generated according to the cAMP assay conditions described above in at least duplicate and results are averaged and rounded to two significant figures.

T1 sequence (P31391 whole entry): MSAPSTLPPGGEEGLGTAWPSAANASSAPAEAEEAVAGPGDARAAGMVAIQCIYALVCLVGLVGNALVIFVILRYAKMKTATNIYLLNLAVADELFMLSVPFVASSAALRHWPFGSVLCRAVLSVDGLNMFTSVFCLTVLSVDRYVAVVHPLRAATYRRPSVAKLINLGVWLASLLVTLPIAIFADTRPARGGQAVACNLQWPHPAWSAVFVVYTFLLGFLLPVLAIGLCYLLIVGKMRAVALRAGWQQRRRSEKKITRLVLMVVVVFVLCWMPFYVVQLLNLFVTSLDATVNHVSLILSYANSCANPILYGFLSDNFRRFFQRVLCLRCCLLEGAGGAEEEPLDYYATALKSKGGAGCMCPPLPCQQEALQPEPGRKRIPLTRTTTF

Row | SMILES | EC50 [nM]
1 | Cc1cccn2c(C(C)(C)NC(=O)[C@@H]3CN(Cc4ccccc4)CCN3)ncc12 [SC-058, (S)-4-benzyl-N-(2-(8-methylimidazo[1,5-a]pyridin-3-yl)propan-2-yl)piperazine-2-carboxamide] | 1700
2 | Cc1cccn2c(C(C)(C)NC(=O)[C@@H]3CN(C(=O)c4ccnn4C)CCN3)ncc12 [SC-082, (S)-4-(1-methyl-1H-pyrazole-5-carbonyl)-N-(2-(8-methylimidazo[1,5-a]pyridin-3-yl)propan-2-yl)piperazine-2-carboxamide] | 5400
3 | Cc1cccn2c(C(C)(C)NC(=O)[C@@H]3CN(C4CCC4)CCN3)ncc12 [SC-053, (S)-4-cyclobutyl-N-(2-(8-methylimidazo[1,5-a]pyridin-3-yl)propan-2-yl)piperazine-2-carboxamide] | 520
4 | CCN1CCN[C@H](C(=O)NC(C)(C)c2ncc3c(C)cccn23)C1 [SC-054, (S)-4-ethyl-N-(2-(8-methylimidazo[1,5-a]pyridin-3-yl)propan-2-yl)piperazine-2-carboxamide] | 17
5 | Cc1cccn2c(C(C)(C)NC(=O)[C@@H]3CNCCN3Cc3ccc(C(F)(F)F)nc3)ncc12 [SC-030, (S)-N-(2-(8-methylimidazo[1,5-a]pyridin-3-yl)propan-2-yl)-1-((6-(trifluoromethyl)pyridin-3-yl)methyl)piperazine-2-carboxamide] | 0.48
6 | Cc1cccn2c(C(C)(C)NC(=O)[C@@H]3CNCCN3CC3CCC3)ncc12 [SC-033, (S)-1-(cyclobutylmethyl)-N-(2-(8-methylimidazo[1,5-a]pyridin-3-yl)propan-2-yl)piperazine-2-carboxamide] | 0.38
7 | Cc1cccn2c(C(C)(C)NC(=O)[C@@H]3CNCCN3Cc3ccccc3)ncc12 [SC-085, (S)-1-benzyl-N-(2-(8-methylimidazo[1,5-a]pyridin-3-yl)propan-2-yl)piperazine-2-carboxamide] | 0.11
8 | Cc1cccn2c(C(C)(C)NC(=O)C3CNCCN3Cc3ncccn3)ncc12 (racemic) [SC-001, rac-N-(2-(8-methylimidazo[1,5-a]pyridin-3-yl)propan-2-yl)-1-(pyrimidin-2-ylmethyl)piperazine-2-carboxamide] | 13
9 | COc1cccn2c(C(C)(C)NC(=O)[C@@H]3CNCCN3C)ncc12 [SC-128, (S)-N-(2-(8-methoxyimidazo[1,5-a]pyridin-3-yl)propan-2-yl)-1-methylpiperazine-2-carboxamide] | 3.8
10 | CCCN1CCN[C@H](C(=O)NC(C)(C)c2ncc3c(C)cccn23)C1 [SC-070, (S)-N-(2-(8-methylimidazo[1,5-a]pyridin-3-yl)propan-2-yl)-4-propylpiperazine-2-carboxamide] | 82
11 | Cc1cccn2c(C(C)(C)NC(=O)C3CNCCN3Cc3cccnn3)ncc12 (racemic) [SC-004, rac-N-(2-(8-methylimidazo[1,5-a]pyridin-3-yl)propan-2-yl)-1-(pyridazin-3-ylmethyl)piperazine-2-carboxamide] | 7.4
12 | Cc1cccn2c(C(C)(C)NC(=O)[C@@H]3CN(C)CCN3C)ncc12 [SC-046, (S)-1,4-dimethyl-N-(2-(8-methylimidazo[1,5-a]pyridin-3-yl)propan-2-yl)piperazine-2-carboxamide] | 2.8
13 | Cc1cccn2c(C(C)(C)NC(=O)[C@@H]3CNCCN3Cc3ccnc(C4CC4)c3)ncc12 [SC-022, (S)-1-((2-cyclopropylpyridin-4-yl)methyl)-N-(2-(8-methylimidazo[1,5-a]pyridin-3-yl)propan-2-yl)piperazine-2-carboxamide] | 0.09
14 | Cc1cccn2c(C(C)(C)NC(=O)[C@@H]3CN(C)CCN3CC3CCOCC3)ncc12 [SC-047, (S)-4-methyl-N-(2-(8-methylimidazo[1,5-a]pyridin-3-yl)propan-2-yl)-1-((tetrahydro-2H-pyran-4-yl)methyl)piperazine-2-carboxamide] | 0.45
15 | Cc1cccc2c(C(C)(C)NC(=O)[C@@H]3CNCCN3CC(F)(F)F)n[nH]c12 [SC-098, (S)-N-(2-(7-methyl-1H-indazol-3-yl)propan-2-yl)-1-(2,2,2-trifluoroethyl)piperazine-2-carboxamide] | 0.07
16 | CN1CCNC[C@@H]1C(=O)NC(C)(C)c1ncc2c(Cl)cccn12 [SC-109, (R)-N-(2-(8-chloroimidazo[1,5-a]pyridin-3-yl)propan-2-yl)-1-methylpiperazine-2-carboxamide] | 1600
17 | COCCN1CCNC[C@H]1C(=O)NC(C)(C)c1ncc2c(C)cccn12 [SC-092, (S)-1-(2-methoxyethyl)-N-(2-(8-methylimidazo[1,5-a]pyridin-3-yl)propan-2-yl)piperazine-2-carboxamide] | 1.1

Row | SMILES | EC50 [nM]
18 | CN1CCNC[C@H]1C(=O)NC(C)(C)c1n[nH]c2c(F)cccc12 [SC-129, (S)-N-(2-(7-fluoro-1H-indazol-3-yl)propan-2-yl)-1-methylpiperazine-2-carboxamide] | 2.8
19 | CN1CCNC[C@H]1C(=O)NC(C)(C)c1nn(C)c2ccccc12 [SC-100, (S)-1-methyl-N-(2-(1-methyl-1H-indazol-3-yl)propan-2-yl)piperazine-2-carboxamide] | 0.91
20 | Cc1cccn2c(C(C)(C)NC(=O)[C@@H]3CNCCN3Cc3ccccc3F)ncc12 [SC-026, (S)-1-(2-fluorobenzyl)-N-(2-(8-methylimidazo[1,5-a]pyridin-3-yl)propan-2-yl)piperazine-2-carboxamide] | 0.12
21 | Cc1cccc2c(C(C)(C)NC(=O)[C@@H]3CN(C)CCN3)n[nH]c12 [SC-095, (S)-4-methyl-N-(2-(7-methyl-1H-indazol-3-yl)propan-2-yl)piperazine-2-carboxamide] | 2.9
22 | Cc1cccn2c(C(C)(C)NC(=O)[C@@H]3CNCCN3Cc3cnccn3)ncc12 (racemic) [SC-007, rac-N-(2-(8-methylimidazo[1,5-a]pyridin-3-yl)propan-2-yl)-1-(pyrazin-2-ylmethyl)piperazine-2-carboxamide] | 2.2
23 | CN1CCN[C@H](C(=O)NC(C)(C)c2ncc3c(C(F)(F)F)cccn23)C1 [SC-112, (S)-4-methyl-N-(2-(8-(trifluoromethyl)imidazo[1,5-a]pyridin-3-yl)propan-2-yl)piperazine-2-carboxamide] | 490
24 | Cc1cccn2c(C(C)(C)NC(=O)[C@@H]3CN(C)CCN3CC(F)(F)F)ncc12 [SC-045, (S)-4-methyl-N-(2-(8-methylimidazo[1,5-a]pyridin-3-yl)propan-2-yl)-1-(2,2,2-trifluoroethyl)piperazine-2-carboxamide] | 1.4
25 | CN1CCN[C@H](C(=O)NC(C)(C)c2ncc3c(C4CC4)cccn23)C1 [SC-119, (S)-N-(2-(8-cyclopropylimidazo[1,5-a]pyridin-3-yl)propan-2-yl)-4-methylpiperazine-2-carboxamide] | 540
26 | Cc1cccn2c(C(C)(C)NC(=O)[C@@H]3CNCCN3C)nc(C)c12 [SC-114, (S)-N-(2-(1,8-dimethylimidazo[1,5-a]pyridin-3-yl)propan-2-yl)-1-methylpiperazine-2-carboxamide] | 0.38
27 | Cc1cccn2c(C(C)(C)NC(=O)[C@@H]3CN(Cc4cocn4)CCN3)ncc12 [SC-063, (S)-N-(2-(8-methylimidazo[1,5-a]pyridin-3-yl)propan-2-yl)-4-(oxazol-4-ylmethyl)piperazine-2-carboxamide] | 930
28 | Cn1nc(C(C)(C)NC(=O)[C@@H]2CNCCN2CC2COC2)c2ccccc21 [SC-123, (S)—N-(2-(1-methyl-1H-indazol-3-yl)propan-2-yl)-1-(oxetan-3-ylmethyl)piperazine-2-carboxamide] | 7.1
29 | CN1CCNC[C@H]1C(=O)NC(C)(C)c1ncc2c(C(F)(F)F)cccn12 [SC-110, (S)-1-methyl-N-(2-(8-(trifluoromethyl)imidazo[1,5-a]pyridin-3-yl)propan-2-yl)piperazine-2-carboxamide] | 36
30 | Cc1cccn2c(C(C)(C)NC(=O)[C@@H]3CNCCN3C)ncc12 [SC-016, (S)-1-methyl-N-(2-(8-methylimidazo[1,5-a]pyridin-3-yl)propan-2-yl)piperazine-2-carboxamide] | 0.44
31 | Cc1cccn2c(C(C)(C)NC(=O)[C@@H]3CN(C)CCN3)nc(C)c12 [SC-116, (S)-N-(2-(1,8-dimethylimidazo[1,5-a]pyridin-3-yl)propan-2-yl)-4-methylpiperazine-2-carboxamide] | 32
32 | CN1CCNC[C@H]1C(=O)NC(C)(C)c1ncc2c(Cl)cccn12 [SC-104, (S)-N-(2-(8-chloroimidazo[1,5-a]pyridin-3-yl)propan-2-yl)-1-methylpiperazine-2-carboxamide] | 0.9
33 | Cc1cccn2c(C(C)(C)NC(=O)[C@@H]3CNCCN3CC3(C)CCC(F)(F)CC3)ncc12 [SC-024, (S)-1-((4,4-difluoro-1-methylcyclohexyl)methyl)-N-(2-(8-methylimidazo[1,5-a]pyridin-3-yl)propan-2-yl)piperazine-2-carboxamide] | 0.46
34 | Cc1cccn2c(C(C)(C)NC(=O)[C@@H]3CN(Cc4ccnn4C)CCN3)ncc12 [SC-072, (S)-4-((1-methyl-1H-pyrazol-5-yl)methyl)-N-(2-(8-methylimidazo[1,5-a]pyridin-3-yl)propan-2-yl)piperazine-2-carboxamide] | 1200
